pIC50: −log10 of the molar value.
Assays:
Format in all cases: functional, cell-based
HL-60 [1] = assay: In vitro cytotoxicity against HL60 cells.; settings: Homo sapiens
HL-60 [2] = assay: In vitro apoptotic activity against HL60 cells after 48 hr of treatment.; settings: Homo sapiens, HL-60, 48 h
K562 [3] = assay: The compound evaluated for Cytotoxic activity against multi drug resistant K562 cells (the results were obtained after 48 hr treatment); settings: Homo sapiens, K562, 48 h
K562 [4] = assay: The compound evaluated for apoptotic activity against K562 cells (the results were obtained after 48 hr treatment); settings: Homo sapiens, K562, 48 h
HuT78 [5] = assay: The compound evaluated for apoptotic activity against HUT 78 cells (the results were obtained after 48 hr treatment); settings: Homo sapiens, HuT78, 48 h
HuT78 [6] = assay: The compound evaluated for Cytotoxic activity against multi drug resistant HUT 78 cells (the results were obtained after 48 hr treatment); settings: Homo sapiens, HuT78, 48 h
HL-60 [7] = assay: The compound evaluated for Cytotoxic activity against multi drug resistant HL60R cells (the results were obtained after 48 hr treatment); settings: Homo sapiens, HL-60, 48 h
HL-60 [8] = assay: The compound evaluated for apoptotic activity against multi drug resistant HL60 R cells (the results were obtained after 48 hr treatment); settings: Homo sapiens, HL-60, 48 h
HuT78 [9] = assay: The compound evaluated for apoptotic activity against multi drug resistant HUT 78 cells (the results were obtained after 48 hr treatment); settings: Homo sapiens, HuT78, 48 h

| SMILES | pIC50 (HL-60 [1]) | AC50 (HL-60 [2]) | also measured |
| --- | --- | --- | --- |
| C/C(=C/c1cc(C(=O)O)no1)c1ccc2c(c1)C(C)(C)CCC2(C)C | 4.59 | 47 µM | – |
| C/C(=C\c1cccc(C(=O)O)c1)c1ccc2c(c1)C(C)(C)CCC2(C)C | < 4.00 | > 100 µM | – |
| C/C(=C/c1cccc(C(=O)O)c1)c1ccc2c(c1)C(C)(C)CCC2(C)C | 4.30 | 80 µM | – |
| COc1ccc(/C=C\c2ccc3c(c2)C(C)(C)CCC3(C)C)cc1N | 4.60 | 50 µM | pIC50 (K562 [3]): 4.38; AC50 (K562 [4]): 50 µM; AC50 (HuT78 [5]): 46 µM; pIC50 (HuT78 [6]): 4.66; pIC50 (HL-60 [7]): 4.32; AC50 (HL-60 [8]): 87 µM |
| CC1=C(/C=C/C(C)=C/C=C/C(C)=C/C(=O)O)C(C)(C)CCC1 [TRETINOIN] | – | > 100 µM | – |
| CC1(C)CCC(C)(C)c2cc(/C=C\c3cccc(N)c3)ccc21 | 5.00 | 10 µM | pIC50 (K562 [3]): 4.89; AC50 (K562 [4]): 27 µM; AC50 (HuT78 [5]): 10 µM; pIC50 (HuT78 [6]): 5.30; pIC50 (HL-60 [7]): 4.82; AC50 (HL-60 [8]): 25 µM |
| CC1(C)CCC(C)(C)c2cc(/C=C/c3cccc(N)c3)ccc21 | 4.70 | 40 µM | – |
| CC1(C)CCC(C)(C)c2cc(/C=C/c3ccc(N)cc3)ccc21 | 4.74 | 38 µM | – |
| C/C(=C\c1ccc(C(=O)O)cc1)c1ccc2c(c1)C(C)(C)CCC2(C)C | 4.34 | > 100 µM | – |
| C/C(=C/c1ccccc1C(=O)O)c1ccc2c(c1)C(C)(C)CCC2(C)C | 4.28 | 90 µM | – |
| COc1ccc(/C=C/c2ccc3c(c2)C(C)(C)CCC3(C)C)cc1 | 4.30 | > 100 µM | – |
| C/C(=C\c1ccccc1C(=O)O)c1ccc2c(c1)C(C)(C)CCC2(C)C | < 4.00 | > 100 µM | – |
| COc1ccc(/C=C(\C)c2ccc3c(c2)C(C)(C)CCC3(C)C)cc1N | 4.70 | 40 µM | – |
| COc1ccc(/C=C\c2ccc3c(c2)C(C)(C)CCC3(C)C)cc1 | 4.30 | > 100 µM | – |
| CC1(C)CCC(C)(C)c2cc(/C=C\c3ccc(N)cc3)ccc21 | 4.74 | 38 µM | pIC50 (K562 [3]): 4.30; AC50 (K562 [4]): > 100 µM; pIC50 (HuT78 [6]): 4.37; pIC50 (HL-60 [7]): 4.60; AC50 (HL-60 [8]): > 100 µM; AC50 (HuT78 [9]): > 100 µM |
| C/C(=C/c1ccc(C(=O)O)cc1)c1ccc2c(c1)C(C)(C)CCC2(C)C | 5.00 | 40 µM | – |
| COc1ccc(/C=C/c2ccc3c(c2)C(C)(C)CCC3(C)C)cc1N | 4.21 | 85 µM | – |
| COc1ccc(/C=C(/C)c2ccc3c(c2)C(C)(C)CCC3(C)C)cc1N | 4.38 | 90 µM | – |
